Measurements: article PMC4226674, “A phase I trial of the HIV protease inhibitor nelfinavir in adults with solid tumors” (Oncotarget, 2014)
Several values for one entry are separate records, joined by “and”; a condition that tells them apart may be missing. Identical values can stand only once.

Columns and labels:
P-AKT S473 = assay: Akt activation in PBMCs by immunoblotting; format: in vivo, human
Method: Blood was collected in Vacutainer CPT collection tubes with sodium heparin (BD Biosciences cat# 362753) and mononuclear cells were isolated as per the manufacturer's instructions. PBMCs were washed with PBS and lysed in 2X LSB buffer, aliquotted and stored at -80°C. For analysis, equal amounts of protein per sample were run on 10-12% SDS-PAGE gels, then transferred onto nitrocellulose membranes. Membranes were blocked in 5% milk in TBS + 0.1% tween (TBST) and incubated with primary antibody diluted in 5% BSA in TBST at 4 degrees overnight. The next day membranes were washed, incubated with HRP-linked secondary antibody and developed using ECL chemiluminescent reagent (GE Healthcare) and X-ray film as per the manufacturers instructions. […] Antibodies to CHOP sc-7351 and ATF3 sc-188 were from Santa Cruz Biotechnology (Santa Cruz, CA).

[1] = tested on: advanced refractory solid tumors; assay: Tumor response by RECIST and duration of therapy
Method: Physical examinations, toxicity assessments and laboratory analyses were conducted weekly during cycle 1 and then every three weeks beginning cycle 2. An electrocardiogram was performed every cycle, and restaging scans were performed at baseline and every two cycles thereafter. Subjects remained on study until disease progression (as determined by RECIST), severe toxicity, or individual choice.
Tumor response was assessed according to Response Evaluation Criteria in Solid Tumors (RECIST) [34] every two cycles.

[2] = Method: This single institution, open-label, Phase Ia dose escalation study was performed to establish the MTD and DLT of nelfinavir in subjects with advanced refractory solid tumors. The study used a modified Fibonacci scheme, in which cohorts of three to six subjects were entered at each dose level until two patients developed DLT. If two or more subjects encountered DLT, then the MTD was exceeded. The MTD was defined as the dose level at which less than 2 of 6 subjects experienced DLT. Each cycle lasted 21 days. Up to 6 additional patients were allowed to be enrolled at the MTD in order to better establish potential rates of toxicity.
Physical examinations, toxicity assessments and laboratory analyses were conducted weekly during cycle 1 and then every three weeks beginning cycle 2.
The starting dose of nelfinavir was the FDA-approved dose in HIV patients of 1250 mg twice daily, which comprised dose level (DL) 1. Dose escalation proceeded in 625 mg, twice-daily increments (DL2: 1875 mg, DL3: 2500 mg, DL4: 3125 mg, DL5: 3750 mg, DL6: 4375 mg).
Toxicity was graded according to the National Cancer Institute Common Toxicity Criteria, version 3.0.

liposarcoma = conditions: cited from earlier work
P-EIF2 alpha S51 = assay: ER stress marker P-EIF2 alpha in PBMCs by immunoblotting; format: in vivo, human; conditions: DL4 (3125 mg bid), after 7 or 42 days; printed as 'the same percentage'
Method: Peripheral blood mononuclear cells (PBMCs) were collected at baseline, and then twice after starting nelfinavir: cycle 1 day 7 and cycle 1 day 42. Levels of P-AKT S473, P-EIF2 alpha S51, ATF3 and CHOP in PBMCs before and after nelfinavir were analyzed by immunoblotting. Blood was collected in Vacutainer CPT collection tubes with sodium heparin (BD Biosciences cat# 362753) and mononuclear cells were isolated as per the manufacturer's instructions. PBMCs were washed with PBS and lysed in 2X LSB buffer [33], aliquotted and stored at -80°C. For analysis, equal amounts of protein per sample were run on 10-12% SDS-PAGE gels, then transferred onto nitrocellulose membranes. Membranes were blocked in 5% milk in TBS + 0.1% tween (TBST) and incubated with primary antibody diluted in 5% BSA in TBST at 4 degrees overnight. The next day membranes were washed, incubated with HRP-linked secondary antibody and developed using ECL chemiluminescent reagent (GE Healthcare) and X-ray film as per the manufacturers instructions. The amount of P-AKT S473, P-EIF2 alpha S51, ATF3 or CHOP in the PBMCs at C1D7 and C1D42 were compared against a baseline sample for each patient, (prior to receiving nelfinavir). Antibodies against P-AKT S473 #4060, P-EIF2 alpha S51 #3398 and β-Actin #4970 were from Cell Signaling Technology (Danvers, MA). […]

With `Cc1c(O)cccc1C(=O)N[C@@H](CSc1ccccc1)[C@H](O)CN1C[C@H]2CCCC[C@H]2C[C@H]1C(=O)NC(C)(C)C` [nelfinavir, Nelfinavir] as the molecule, how does the “subject PBMCs showing a decrease in P-AKT S473” value (P-AKT S473; DL4 (3125 mg bid), after 7 or 42 days) read?
Its value is 45%.

What about the “effect on AKT in peripheral blood mononuclear cells” value (P-AKT S473; in vivo) of the same molecule?
The value was “inhibited AKT”.

And the “time on study, two of the subjects with NET of the midgut” value ([1]; 3125 mg BID)?
Its value is “at least 8 months”.

What about the “subjects remaining on study for 8 months or more” value ([1]; 3125 mg BID MTD, progressed prior to study entry (four subjects)) of the same molecule?
Its value is 36%.

What about the “ORR (confirmed partial response) at the MTD” value ([1]; 3125 mg bid expansion cohort, 11 evaluable subjects) of the same molecule?
The value was 9% and 9.1%.

What about the “ORR in the overall population” value ([1]; 21 evaluable subjects, all dose levels) of the same molecule?
Its value is 4.8%.

And the “minor responses in subjects with neuroendocrine tumors” value ([1]; NET of the midgut or pancreatic origin, MTD)?
The value was “two”.

What about the “subjects with stable disease for more than 6 months” value ([1]; expansion cohort at the MTD) of the same molecule?
The value was “Thirty-six”.

And the “levels of circulating chromogranin, synaptophysin, and/or urinary 5-HIAA” value ([1]; responders with NET and carcinoid syndrome)?
The value was “transient decreases”.

What about the “time to improvement of carcinoid syndrome symptoms (flushing and diarrhea)” value ([1]; responders with NET that had carcinoid syndrome) of the same molecule?
The value was no more than 7 days.

What about the Duration of therapy ([1]; subject 1, SCLC, 1250 mg BID) of the same molecule?
The Duration of therapy was 1.4 mos.

And the Duration of therapy ([1]; subject 3, SCLC, 1250 mg BID)?
The Duration of therapy was 1.4 mos.

What about the Duration of therapy ([1]; subject 4, SCLC, 1250 mg BID) of the same molecule?
The Duration of therapy was 1.4 mos.

What about the Duration of therapy ([1]; subject 5, Anaplastic Thyroid, 1875 mg BID) of the same molecule?
The Duration of therapy was 1.4 mos.

What about the Duration of therapy ([1]; subject 7, Differentiated Thyroid, 1875 mg BID) of the same molecule?
The Duration of therapy was 2.8 mos.

And the Duration of therapy ([1]; subject 8, NSCLC, 1875 mg BID)?
The Duration of therapy was 3.5 mos.

What about the Duration of therapy ([1]; subject 9, Colorectal, 2500 mg BID) of the same molecule?
The Duration of therapy was 1.4 mos.

And the Duration of therapy ([1]; subject 10, Pancreatic Adenocarcinoma, 2500 mg BID)?
Its Duration of therapy is 2.8 mos.

What about the Duration of therapy ([1]; subject 11, NSCLC, 2500 mg BID) of the same molecule?
Its Duration of therapy is 4.1 mos.

What about the Duration of therapy ([1]; subject 12, Differentiated thyroid, 3125 mg BID) of the same molecule?
Its Duration of therapy is 2.1 mos.

And the Duration of therapy ([1]; subject 14, Renal Cell Cancer, 3125 mg BID)?
Its Duration of therapy is 1.4 mos.

What about the Duration of therapy ([1]; subject 17, Adenoid Cystic, 3125 mg BID) of the same molecule?
Its Duration of therapy is 11 mos. and 11.0 mos.

What about the Duration of therapy ([1]; subject 18, Neuroendocrine tumor, 3125 mg BID) of the same molecule?
Its Duration of therapy is 8.3 mos.

What about the Duration of therapy ([1]; subject 19, Colorectal, 3125 mg BID) of the same molecule?
The Duration of therapy was 4.1 mos.

And the Duration of therapy ([1]; subject 21, Adenoid Cystic, 3750 mg BID)?
Its Duration of therapy is 1.4 mos.

What about the Duration of therapy ([1]; subject 23, Prostate, 3125 mg BID) of the same molecule?
Its Duration of therapy is 1.0 mos.

What about the Duration of therapy ([1]; subject 24, SCLC, 3125 mg BID) of the same molecule?
The Duration of therapy was 2.8 mos.

What about the Duration of therapy ([1]; subject 25, Colorectal, 3125 mg BID) of the same molecule?
The Duration of therapy was 2.8 mos.

And the Duration of therapy ([1]; subject 26, Neuroendocrine tumor, 3125 mg BID)?
The Duration of therapy was 12.4 mos.

And the Duration of therapy ([1]; subject 27, Neuroendocrine tumor, 3125 mg BID)?
The Duration of therapy was 3.5 mos.

And the Duration of therapy ([1]; subject 28, Neuroendocrine tumor (midgut, carcinoid syndrome), 3125 mg BID)?
Its Duration of therapy is 23.5 mos.

What about the “additional time on nelfinavir off study with stable disease” value ([1]; subject that achieved a PR, NET of the midgut) of the same molecule?
The value was “six”.

And the “MTD relative to FDA-approved dose for HIV (fold/times)” value ([2]; 3125 mg bid vs doses typically used in HIV patients)?
The value was 2.5.

What about the “onset of nelfinavir-induced neutropenia” value ([2]; human, in vivo) of the same molecule?
Its value is no more than 3 days.

And the “recovery of neutropenia after discontinuation of drug” value ([2]; human, in vivo)?
Its value is no more than 3 days.

And the “ALT increase, treatment-related AE in cycle 1” value ([2]; human, in vivo, 21 days)?
The value was 5 (20.8) N (%).

What about the “Abdominal pain, treatment-related AE in cycle 1” value ([2]; human, in vivo, 21 days) of the same molecule?
Its value is 1 (4.2) N (%).

And the “Anemia, treatment-related AE in cycle 1” value ([2]; human, in vivo, 21 days)?
The value was 10 (41.7) N (%).

What about the “Anorexia, treatment-related AE in cycle 1” value ([2]; human, in vivo, 21 days) of the same molecule?
Its value is 1 (4.2) N (%).

And the “Belching, treatment-related AE in cycle 1” value ([2]; human, in vivo, 21 days)?
Its value is 1 (4.2) N (%).

What about the “Bloating/, treatment-related AE in cycle 1” value ([2]; human, in vivo, 21 days) of the same molecule?
The value was 3 (12.5) N (%).

What about the “Cholesterol increase, treatment-related AE in cycle 1” value ([2]; human, in vivo, 21 days) of the same molecule?
The value was 3 (12.5) N (%).

And the “Dehydration, treatment-related AE in cycle 1” value ([2]; human, in vivo, 21 days)?
The value was 2 (8.3) N (%).

And the “Depression, treatment-related AE in cycle 1” value ([2]; human, in vivo, 21 days)?
Its value is 1 (4.2) N (%).

And the “Diarrhea, treatment-related AE in cycle 1” value ([2]; human, in vivo, 21 days)?
Its value is 12 (50.0) N (%).

What about the “Fatigue, treatment-related AE in cycle 1” value ([2]; human, in vivo, 21 days) of the same molecule?
The value was 5 (20.8) N (%).

And the “Flatulence, treatment-related AE in cycle 1” value ([2]; human, in vivo, 21 days)?
The value was 1 (4.2) N (%).

What about the “Heartburn, treatment-related AE in cycle 1” value ([2]; human, in vivo, 21 days) of the same molecule?
The value was 1 (4.2) N (%).

And the “Hyperglycemia, treatment-related AE in cycle 1” value ([2]; human, in vivo, 21 days)?
Its value is 4 (16.7) N (%).

And the “Hyperkalemia, treatment-related AE in cycle 1” value ([2]; human, in vivo, 21 days)?
Its value is 3 (12.5) N (%).

And the “Hypoalbuminemia, treatment-related AE in cycle 1” value ([2]; human, in vivo, 21 days)?
The value was 5 (20.8) N (%).

What about the “Hypokalemia, treatment-related AE in cycle 1” value ([2]; human, in vivo, 21 days) of the same molecule?
Its value is 1 (4.2) N (%).

What about the “Hyponatremia, treatment-related AE in cycle 1” value ([2]; human, in vivo, 21 days) of the same molecule?
The value was 2 (8.3) N (%).

And the “Hypophosphatemia, treatment-related AE in cycle 1” value ([2]; human, in vivo, 21 days)?
The value was 1 (4.2) N (%).

What about the “Hypothyroid, treatment-related AE in cycle 1” value ([2]; human, in vivo, 21 days) of the same molecule?
Its value is 1 (4.2) N (%).

And the “Insomnia, treatment-related AE in cycle 1” value ([2]; human, in vivo, 21 days)?
Its value is 1 (4.2) N (%).

What about the “Leukopenia, treatment-related AE in cycle 1” value ([2]; human, in vivo, 21 days) of the same molecule?
Its value is 4 (16.7) N (%).

And the “Lymphopenia, treatment-related AE in cycle 1” value ([2]; human, in vivo, 21 days)?
The value was 10 (41.7) N (%).

What about the “Nausea, treatment-related AE in cycle 1” value ([2]; human, in vivo, 21 days) of the same molecule?
Its value is 2 (8.3) N (%).

And the “Neutropenia, treatment-related AE in cycle 1” value ([2]; human, in vivo, 21 days)?
The value was 5 (20.8) N (%).

What about the “Palpitations, treatment-related AE in cycle 1” value ([2]; human, in vivo, 21 days) of the same molecule?
Its value is 1 (4.2) N (%).

And the “Thrombocytopenia, treatment-related AE in cycle 1” value ([2]; human, in vivo, 21 days)?
The value was 2 (8.3) N (%).

And the “anemia, treatment-related AE in cycle 1” value ([2]; human, in vivo, 21 days)?
Its value is 41.7%.

And the “diarrhea, treatment-related AE in cycle 1” value ([2]; human, in vivo, 21 days)?
Its value is 50%.

And the “fatigue, treatment-related AE in cycle 1” value ([2]; human, in vivo, 21 days)?
The value was 20.8%.

What about the “hypoalbuminemia, treatment-related AE in cycle 1” value ([2]; human, in vivo, 21 days) of the same molecule?
Its value is 20.8%.

What about the “lymphopenia, treatment-related AE in cycle 1” value ([2]; human, in vivo, 21 days) of the same molecule?
Its value is 41.7%.

What about the “dose limiting toxicity (DLT)” value ([2]; human, in vivo, po) of the same molecule?
Its value is “grade 4 neutropenia”.

And the cumulative toxicities ([2]; in vivo)?
Its cumulative toxicities is “No cumulative toxicities were observed”.

What about the “maximum tolerated dose (MTD)” value ([2]; oral, twice daily, 21-day cycles, advanced solid tumors) of the same molecule?
The value was 3125 mg.

And the “MTD in liposarcoma patients” value (liposarcoma; Phase I trial)?
The value was “MTD was not reached”.

And the “dose above which PK non-linearity was found” value (liposarcoma; liposarcoma patients)?
Its value is “above 3000 mg bid”.

What about the “dose at which auto-induction was noted (highest dose evaluated)” value (liposarcoma; liposarcoma patients) of the same molecule?
Its value is 4125 mg BID.

What about the “subject PBMCs showing an increase in P-EIF2 alpha S51” value (P-EIF2 alpha S51) of the same molecule?
Its value is 45%.
